Assay results: patent US20250074943A1, “DLL3 BINDING PEPTIDES AND USES THEREOF” (AMGEN INC., priority 2021, published 2025)
Like-named read-outs stand apart in the source and are kept apart here. Bridge positions count the residues as written; N and C are the ends. Peptide text beside a SMILES is read from it.

Target: T1, recombinant DLL3 ectodomain (rhDLL3-Fc) (Homo sapiens, UniProt Q9NYJ7)
T1 construct: The recombinant DLL3 ectodomain (rhDLL3-Fc) was biotinylated; Fc
T1 sequence (Q9NYJ7 27-492 limits assumed): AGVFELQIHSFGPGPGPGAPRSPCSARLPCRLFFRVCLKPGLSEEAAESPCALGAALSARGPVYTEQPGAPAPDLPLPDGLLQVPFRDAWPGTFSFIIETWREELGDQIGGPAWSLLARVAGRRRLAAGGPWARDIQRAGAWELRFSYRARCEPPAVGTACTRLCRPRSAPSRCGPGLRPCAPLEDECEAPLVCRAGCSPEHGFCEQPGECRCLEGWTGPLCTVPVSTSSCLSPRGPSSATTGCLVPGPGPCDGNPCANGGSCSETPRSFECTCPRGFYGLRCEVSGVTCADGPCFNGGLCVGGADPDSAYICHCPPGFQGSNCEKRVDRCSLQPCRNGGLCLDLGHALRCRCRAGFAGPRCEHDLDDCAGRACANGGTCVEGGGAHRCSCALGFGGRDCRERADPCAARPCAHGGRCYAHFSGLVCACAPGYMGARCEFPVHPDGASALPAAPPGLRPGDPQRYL
Experiment: Binding kinetic assay using Bio-layer interferometry (BLI)
Settings: for binding mode to DLL3: peptides at 20, 4 and 0.8 μM, fit to 1:1 Langmuir binding model; for affinity: wider dose-response 10×KD to 0.1×KD
Description: Binding kinetic assays were performed using Bio-layer interferometry (BLI) technology. The recombinant DLL3 ectodomain (rhDLL3-Fc) was biotinylated using EZ-Link Sulfo-NHS-LC-LC-Biotin Kit according to the manufacturer's protocol (Pierce by Thermo Fisher Scientific). The recombinant protein was incubated with an excess of NHS-LC-LC Biotin ester, in a molar ratio of 1:3 (protein: biotin), at 25° C. for 90 min. The un-reacted biotin ester was removed by subsequent buffer exchange on 0.5 ml Zeba spin desalting columns 7K MWCO (Pierce by Thermo Fisher Scientific).

[1] = Table 4, ± values from three independent experiments, read-out: RT (residence time) (converted)
[2] = range over the seven peptides, read-out: residence time

Row | residence time [1] | binding mode to DLL3 | residence time [2] | affinity | Kd (Table 4, global fitting 1:1 Langmuir, koff vs kon ratio, ± values from three independent experiments) | RT (residence time) (Table 4, ± values from three independent experiments) | Structure (SMILES)
1 | 1.09 min | dose-response saturable binding | 1 to 3 min | double-digit nM range | – | – | CC(C)[C@H](NC(=O)[C@@H](NC(=O)[C@H](CCC(=O)O)NC(=O)[C@H](C)N)[C@@H](C)O)C(=O)N[C@@H](CCC(=O)O)C(=O)N[C@@H](Cc1ccccc1)C(=O)N[C@@H](Cc1ccc(O)cc1)C(=O)NCC(=O)N[C@H]1CSSC[C@@H](C(=O)N[C@H](C(=O)N[C@@H](Cc2c[nH]c3ccccc23)C(N)=O)[C@@H](C)O)NC(=O)[C@H]([C@@H](C)O)NC(=O)[C@H](Cc2ccc(O)cc2)NC(=O)[C@H](CCC(=O)O)NC(=O)[C@H](Cc2ccc(O)cc2)NC(=O)[C@H](C)NC(=O)[C@H](CC(=O)O)NC(=O)CNC(=O)[C@H]([C@@H](C)O)NC1=O [PepSP1147] (H-AETVEFYGCTGDAYEYTCTW-NH2; disulfide 9-18; N-terminus assumed)
2 | 2.78 min | dose-response saturable binding | – | – | 125 nM | – | CC(C)[C@@H]1NC(=O)CNC(=O)[C@H](CCC(=O)O)NC(=O)[C@H]([C@@H](C)O)NC(=O)[C@H](Cc2c[nH]c3ccccc23)NC(=O)[C@H](Cc2ccc(O)cc2)NC(=O)[C@@H](NC(=O)[C@@H](NC(=O)[C@H](Cc2c[nH]c3ccccc23)NC(=O)[C@H](Cc2ccccc2)NC(=O)[C@H](CCC(=O)O)NC(=O)[C@@H](NC(=O)[C@@H](NC(=O)[C@H](CCC(=O)O)NC(=O)[C@H](C)N)[C@@H](C)O)C(C)C)[C@@H](C)O)CSSC[C@@H](C(=O)N[C@@H](CCCNC(=N)N)C(=O)N[C@@H](Cc2c[nH]c3ccccc23)C(N)=O)NC(=O)CNC(=O)[C@H](CO)NC1=O [PepSP1151] (H-AETVEFWTCYWTEGVSGCRW-NH2; disulfide 9-18)
3 | 2.95 min | dose-response saturable binding | – | – | – | – | CC(C)[C@@H]1NC(=O)[C@H]([C@@H](C)O)NC(=O)[C@H](CCC(=O)O)NC(=O)[C@H](CCC(=O)O)NC(=O)[C@H](Cc2ccc(O)cc2)NC(=O)[C@H](Cc2c[nH]c3ccccc23)NC(=O)[C@H](CC(=O)O)NC(=O)[C@@H](NC(=O)[C@H](CCCNC(=N)N)NC(=O)[C@H](Cc2c[nH]c3ccccc23)NC(=O)[C@H](Cc2ccc(O)cc2)NC(=O)[C@H](CCC(=O)O)NC(=O)[C@@H](NC(=O)[C@@H](NC(=O)[C@H](CCC(=O)O)NC(=O)[C@H](C)N)[C@@H](C)O)C(C)C)CSSC[C@@H](C(=O)NCC(=O)N[C@H](C(N)=O)[C@@H](C)O)NC(=O)[C@H](C)NC1=O [PepSP1155] (H-AETVEYWRCDWYEETVACGT-NH2; disulfide 9-18)
4 | 1.48 min | dose-response saturable binding | – | – | – | – | CC(C)[C@H](NC(=O)[C@@H](NC(=O)[C@H](CCC(=O)O)NC(=O)[C@H](C)N)[C@@H](C)O)C(=O)N[C@@H](CCC(=O)O)C(=O)N[C@@H](Cc1ccccc1)C(=O)N[C@@H](Cc1c[nH]c2ccccc12)C(=O)N[C@@H](CO)C(=O)N[C@H]1CSSC[C@@H](C(=O)NCC(=O)N[C@H](C(N)=O)[C@@H](C)O)NC(=O)[C@H](CO)NC(=O)[C@H](C(C)C)NC(=O)[C@H]([C@@H](C)O)NC(=O)[C@H](Cc2c[nH]c3ccccc23)NC(=O)[C@H](Cc2ccc(O)cc2)NC(=O)[C@H](CO)NC(=O)[C@H](Cc2ccc(O)cc2)NC(=O)[C@H](Cc2c[nH]cn2)NC1=O [PepSP1157] (H-AETVEFWSCHYSYWTVSCGT-NH2; disulfide 9-18; N-terminus assumed)
5 | 0.517 min | dose-response saturable binding | – | – | – | – | CSCC[C@@H]1NC(=O)[C@H](CO)NC(=O)[C@@H](NC(=O)CNC(=O)[C@H](Cc2ccc(O)cc2)NC(=O)[C@H](Cc2ccccc2)NC(=O)[C@H](CCC(=O)O)NC(=O)[C@@H](NC(=O)[C@@H](NC(=O)[C@H](CCC(=O)O)NC(=O)[C@H](C)N)[C@@H](C)O)C(C)C)CSSC[C@@H](C(=O)N[C@@H](C)C(=O)N[C@@H](Cc2c[nH]c3ccccc23)C(N)=O)NC(=O)[C@H]([C@@H](C)O)NC(=O)[C@H](C(C)C)NC(=O)CNC(=O)[C@H](CCCNC(=N)N)NC(=O)[C@H](Cc2c[nH]c3ccccc23)NC(=O)[C@H](CC(=O)O)NC1=O [PepSP1158] (H-AETVEFYGCSMDWRGVTCAW-NH2; disulfide 9-18)
6 | 0.1 min | dose-response saturable binding | – | – | – | – | CC(C)C[C@@H]1NC(=O)[C@@H](NC(=O)[C@H](Cc2ccc(O)cc2)NC(=O)[C@H](CC(=O)O)NC(=O)[C@H](Cc2ccccc2)NC(=O)[C@H](CCC(=O)O)NC(=O)[C@@H](NC(=O)[C@@H](NC(=O)[C@H](CCC(=O)O)NC(=O)[C@H](C)N)[C@@H](C)O)C(C)C)CSSC[C@@H](C(=O)N[C@@H](CCC(N)=O)C(=O)N[C@@H](CC(N)=O)C(N)=O)NC(=O)CNC(=O)[C@H](Cc2c[nH]c3ccccc23)NC(=O)[C@H](C)NC(=O)[C@H](CC(=O)O)NC(=O)[C@@H]2CCCN2C(=O)[C@H](C)NC(=O)[C@H](Cc2c[nH]c3ccccc23)NC1=O [PepSP1159] (H-AETVEFDYCLWAPDAWGCQN-NH2; disulfide 9-18; N-terminus assumed)
7 | 0.783 min | dose-response saturable binding | – | – | – | – | CC(C)[C@H](NC(=O)[C@@H]1CSSC[C@H](NC(=O)CNC(=O)[C@H](CCCNC(=N)N)NC(=O)[C@H](Cc2ccccc2)NC(=O)[C@H](CCC(=O)O)NC(=O)[C@@H](NC(=O)[C@@H](NC(=O)[C@H](CCC(=O)O)NC(=O)[C@H](C)N)[C@@H](C)O)C(C)C)C(=O)N[C@@H]([C@@H](C)O)C(=O)NCC(=O)N[C@@H](CC(N)=O)C(=O)N[C@@H](C(C)C)C(=O)N[C@@H](Cc2ccc(O)cc2)C(=O)N[C@@H](CC(=O)O)C(=O)N[C@@H](Cc2c[nH]c3ccccc23)C(=O)N[C@@H]([C@@H](C)O)C(=O)N1)C(=O)N[C@@H](Cc1c[nH]c2ccccc12)C(N)=O [PepSP1160] (H-AETVEFRGCTGNVYDWTCVW-NH2; disulfide 9-18)
8 | 1.46 min | dose-response saturable binding | 1 to 3 min | double-digit nM range | – | 87.8 ± 6 s | CC(C)[C@H](NC(=O)[C@@H](NC(=O)[C@H](CCC(=O)O)NC(=O)[C@H](C)N)[C@@H](C)O)C(=O)N[C@@H](CCC(=O)O)C(=O)N[C@@H](Cc1ccccc1)C(=O)N[C@@H](Cc1c[nH]c2ccccc12)C(=O)N[C@@H](CC(=O)O)C(=O)N[C@H]1CSSC[C@@H](C(=O)N[C@H](C(=O)N[C@@H](Cc2c[nH]c3ccccc23)C(N)=O)[C@@H](C)O)NC(=O)[C@H]([C@@H](C)O)NC(=O)[C@H](Cc2c[nH]c3ccccc23)NC(=O)[C@H](CC(=O)O)NC(=O)[C@H](CC(=O)O)NC(=O)[C@H]([C@@H](C)O)NC(=O)[C@H](CC(N)=O)NC(=O)CNC(=O)[C@H](Cc2c[nH]c3ccccc23)NC1=O [PepSP1161] (H-AETVEFWDCWGNTDDWTCTW-NH2; disulfide 9-18; N-terminus assumed)
9 | 0.85 min | dose-response saturable binding | – | – | – | – | CC(C)[C@H](NC(=O)[C@@H](NC(=O)[C@H](CCC(=O)O)NC(=O)[C@H](C)N)[C@@H](C)O)C(=O)N[C@@H](CCC(=O)O)C(=O)N[C@@H](Cc1ccccc1)C(=O)N[C@@H](Cc1c[nH]c2ccccc12)C(=O)N[C@H](C(=O)N[C@H]1CSSC[C@@H](C(=O)N[C@@H](CO)C(=O)N[C@@H](Cc2c[nH]c3ccccc23)C(N)=O)NC(=O)[C@H]([C@@H](C)O)NC(=O)[C@H](Cc2c[nH]c3ccccc23)NC(=O)[C@H](CCC(=O)O)NC(=O)[C@H](CC(=O)O)NC(=O)[C@H](C)NC(=O)[C@H](CC(N)=O)NC(=O)CNC(=O)[C@H](Cc2c[nH]cn2)NC1=O)[C@@H](C)O [PepSP1162] (H-AETVEFWTCHGNADEWTCSW-NH2; disulfide 9-18)
